Assay results as given in US20220213092A1, “BICYCLIC PYRAZOLE BRUTON'S TYROSINE KINASE INHIBITORS” (AbbVie Inc., priority 2020, published 2022).

How the values were obtained:
BTK = biological target: T1, BTK (Homo sapiens, UniProt Q06187); assay: BTK kinase electrophoretic mobility shift assay (MSA); type: biochemical; conditions: 50 μM ATP, 0.5 nM BTK enzyme (Nanosyn-293HEK, WT), 3 hours at 25° C.; all examples except 50, 51, 62 and 63; read-out: BTK IC50
T1 construct: purchased Nanosyn, Santa Clara, Calif; host or cells: 293HEK

CYP3A4 = CYP3A4 induction assay (CYP 3A4 mRNA by qPCR in cryopreserved human hepatocytes); type: in vitro ADME; conditions: CYP3A4 mRNA fold change vs vehicle, 10 μM compound
Experimental: CYP induction was evaluated in vitro by determining the expression levels of CYP 3A4 mRNA using the qPCR (quantitative polymerase chain reaction) assay. On day one, cryopreserved human hepatocytes were thawed in prewarmed (37° C.) thawing medium (cryopreserved hepatocyte recovery medium, Gibco™ CM 7000; Thermo Fisher Scientific), centrifuged (1000 g for 10 minutes) and resuspended in plating medium (Gibco™ CM3000—Williams Medium E supplemented with hepatocytes plating supplement pak-serum containing; Thermo Fisher Scientific). Cells were counted by trypan blue exclusion using a hemocytometer and adjusted to a cell density of […]. Thereafter, […] of cell suspension was aliquoted per well in a 96-well plate, resulting in 60,000 cells/well. Plates were shaken in the north-south and east-west direction during plating. Plated cells were incubated at 37° C./5% CO2 in a humidified cell culture incubator for 4-6 hours. During this time, incubation medium (Gibco™ CM4000, cell maintenance supplement pack; Thermo Fisher Scientific) was mixed with Gibco™ Geltrex™ (Thermo Fischer Scientific) at the appropriate Geltrex™ protein concentration. Following recovery, medium was removed from cells and replaced with freshly prepared incubation medium. Cells were incubated overnight in a cell culture incubator (37° C./5% CO2).
The next day the incubation medium was prepared by combining the hepatocyte maintenance supplement pack with Williams medium E. The medium was warmed to 37° C. 1000× dimethyl sulfoxide compound stocks were prepared to the desired concentrations. 10 mM compound stocks in dimethyl sulfoxide were diluted (1 μL to 1 mL CM4000; final concentration=10 μM). Overlay medium was aspirated and […] dose solution added to the desired labeled 96 well plate. Cells were returned to the humidified incubator overnight (37° C./5% CO2).
On day 3, incubation medium was warmed to 37° C., and the same process for compound preparation repeated as in day 2, i.e. 1000× dimethyl sulfoxide compound stocks were prepared to the desired concentration, diluted (1:1000) in warm incubation medium, and this freshly prepared medium was used to replace treatment medium. Cells were returned to the humidified incubator (37° C./5% CO2) overnight.
On day 4, RNA isolation was performed. Prior to RNA isolation, cell viability was assessed using presto blue reagent. 10× dilution of PrestoBlue™ reagent (Thermo Fisher Scientific) was prepared by mixing 1.4 mL PrestoBlue™ with 12.6 mL incubation medium. Medium was aspirated from cells, and 100 μL of cell viability medium (10× dilution of PrestoBlue™ reagent) added and incubated for 17 minutes. Cell viability was determined by measuring absorbance using a microplate reader (Spark® 10M Tecan Life Sciences). After this measurement, media was aspirated using a multichannel aspirator and a glass pipet to completely aspirate from each well. Plates were stored or immediately used for mRNA isolation. All surfaces were cleaned using RNase away. 2× Lysis buffer was well mixed after incubation at ambient temperature. Fresh lysis buffer was prepared by mixing 0.125 μL of 0.5 mM DTT with 4.875 μL 2× lysis buffer. 1× lysis buffer containing DTT was then prepared by adding 5 μL dilution buffer to the 2× lysis buffer and mixing thoroughly. Thereafter, cell lysates were prepared by adding 1× lysis buffer to each sample well (96-well plate). Samples were incubated for 3-6 minutes at ambient temperature while shaking (350-400 rpm) to lyse the cells. Cells were scrapped with tips, and cell lysate (80 μL) was transferred to each well of the mRNA Catcher PLUS™ plate (Thermo Fisher Scientific). mRNA Catcher PLUS™ plate containing samples was covered with adhesive plastic film plate cover and incubated at ambient temperature for 45-60 minutes for RNA hybridization.
After hybridization, lysate was aspirated from the cells. […]

[1] = biological target: T2, Full length BTK enzyme (human BTK residues 2-659) (Homo sapiens, UniProt Q06187); assay: BTK MSA with full length BTK enzyme, used for Examples 50, 51, 62 and 63; type: biochemical; conditions: Examples 50, 51, 62 and 63: 1 mM ATP, 0.6 nM full length BTK enzyme, 3 hours at room temperature
T2 construct: 6His (N); Flag (N); TEV cleavage site (N); Serine (single linker residue before BTK residue 2) (N); made in house; host or cells: baculovirus (pFastBac vector)
Experimental: Kinase activities for Examples 50, 51, 62 and 63 were measured in vitro using the following electrophoretic mobility shift assay (MSA). The kinase reactions were assembled in a total volume of 20 μL in 384 well plates. To each well, 20 nL test compound, or control, in 100% dimethyl sulfoxide was spotted using Echo®, a liquid dispensing instrument (Labcyte, Indianapolis, Ind.). To each well was added: 12 μL of 1.67× Full length BTK enzyme in Master Buffer (Master Buffer components: 20 mM HEPES pH 7.4, 10 mM MgCl2, 1 mM DTT, 0.1 mM sodium orthovanadate, 10 mM beta-glycerophosphate, and 0.0075% w/v Triton x-100). Full length BTK enzyme was 6His-Flag-(TEV)-S[BTK(hu) (2-659)]*BEV, pFastBac*. [Note: this is a description of the exact amino acid sequence of the expressed BTK construct from N- to C-terminus: 6Histidines, Flag tag sequence, TEV cleavage site, Serine, human BTK residues 2-659; and BEV=expressed in baculovirus, pFastBac is the expression vector used].
Enzyme and compound/inhibitor were optionally pre-incubated. To each well was added: 8 μL of 2.5×ATP and substrate in 1× Master Buffer (1× Master Buffer as described above). The plate was incubated at room temperature for 3 hours. The reaction was terminated by adding 30 μL of 1.67× Stop Buffer (Stop Buffer components 10 mM EDTA in water), to each well. The final reaction mixture was as follows: 20 mM HEPES, pH 7.4; 0.0075% Triton X-100; 1 mM DTT; 10 mM MgCl2; 0.1 mM sodium orthovanadate; 10 mM beta-glycerophosphate; 0.1% dimethyl sulfoxide (from compound); 1 mM ATP; 1 μM (OG488-SEQ ID NO. 2-NH2) peptide substrate; and 0.6 nM BTK enzyme. […] The kinase activity for the kinases in Table 3 were measured at 3 hours incubation time, except that in the case of MAP2K1 and MAP2K2 assay, pre-activation of ERK was done for 30 min with 6 μM of ATP, and then the detection of activated ERK in the presence of compounds was done after 60 minutes of incubation.
The terminated reactions were analyzed using a 12 channel LABCHIP® 3000 microfluidic detection instrument (available from Caliper Life Sciences, Waltham, Mass.). […] As substrate and product peptides were separated, two peaks of fluorescence were observed. Change in the relative fluorescence intensity of the substrate and product peaks was the parameter measured, reflecting enzyme activity. […] Capillary electrophoregrams (RDA acquisition files) were analyzed using HTS Well Analyzer software (available from Caliper Life Sciences, Waltham, Mass.).
Activity in each sample was determined as the product to sum ratio (PSR): P/(S+P), where P was the peak height of the product peptide and S was the peak height of the substrate peptide. For each compound, enzyme activity was measured at various concentrations (12 concentrations of compound spaced by 3× dilution intervals). […]

[2] = biological target: T3, Phosphorylation of Y223 of BTK (Homo sapiens, UniProt Q06187); assay: Whole blood compound screening, phosphorylation of Y223 site of BTK (MSD assay); type: cell-based; conditions: healthy human whole blood, 2 hours at 37° C., 3 separate donors; read-out: WB BTK-pY223 EC50
T3 construct: host or cells: healthy human whole blood, 3 donors
Procedure, shortened: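 Heparinized human whole blood from 3 donors treated 2 h at 37 °C with compounds (8 points, top 10 μM, 1:4 dilution, 0.2% DMSO), then lysed. BTK pY223 quantified by MSD sandwich immunoassay (anti-BTK capture, anti-pY223 detection); EC50 from concentration response.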

T1 sequence (Q06187 whole entry): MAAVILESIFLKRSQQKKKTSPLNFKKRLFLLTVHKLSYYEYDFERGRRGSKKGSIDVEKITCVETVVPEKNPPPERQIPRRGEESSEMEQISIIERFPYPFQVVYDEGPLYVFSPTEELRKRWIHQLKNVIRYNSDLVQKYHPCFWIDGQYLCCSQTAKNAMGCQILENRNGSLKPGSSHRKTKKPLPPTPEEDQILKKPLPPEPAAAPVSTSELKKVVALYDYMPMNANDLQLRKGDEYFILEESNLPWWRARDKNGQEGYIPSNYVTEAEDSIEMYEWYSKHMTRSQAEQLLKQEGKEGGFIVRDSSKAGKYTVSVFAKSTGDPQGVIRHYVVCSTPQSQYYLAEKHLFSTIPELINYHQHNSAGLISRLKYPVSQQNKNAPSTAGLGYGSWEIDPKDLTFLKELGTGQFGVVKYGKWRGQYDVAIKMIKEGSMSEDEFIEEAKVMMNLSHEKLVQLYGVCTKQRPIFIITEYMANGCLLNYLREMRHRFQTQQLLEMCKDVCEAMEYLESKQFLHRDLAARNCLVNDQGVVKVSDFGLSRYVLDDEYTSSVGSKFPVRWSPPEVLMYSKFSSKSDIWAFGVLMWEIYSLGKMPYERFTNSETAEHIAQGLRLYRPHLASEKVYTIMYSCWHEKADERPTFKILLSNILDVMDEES
T3 sequence (Q06187 whole entry): as above
T2 sequence (Q06187 2-659): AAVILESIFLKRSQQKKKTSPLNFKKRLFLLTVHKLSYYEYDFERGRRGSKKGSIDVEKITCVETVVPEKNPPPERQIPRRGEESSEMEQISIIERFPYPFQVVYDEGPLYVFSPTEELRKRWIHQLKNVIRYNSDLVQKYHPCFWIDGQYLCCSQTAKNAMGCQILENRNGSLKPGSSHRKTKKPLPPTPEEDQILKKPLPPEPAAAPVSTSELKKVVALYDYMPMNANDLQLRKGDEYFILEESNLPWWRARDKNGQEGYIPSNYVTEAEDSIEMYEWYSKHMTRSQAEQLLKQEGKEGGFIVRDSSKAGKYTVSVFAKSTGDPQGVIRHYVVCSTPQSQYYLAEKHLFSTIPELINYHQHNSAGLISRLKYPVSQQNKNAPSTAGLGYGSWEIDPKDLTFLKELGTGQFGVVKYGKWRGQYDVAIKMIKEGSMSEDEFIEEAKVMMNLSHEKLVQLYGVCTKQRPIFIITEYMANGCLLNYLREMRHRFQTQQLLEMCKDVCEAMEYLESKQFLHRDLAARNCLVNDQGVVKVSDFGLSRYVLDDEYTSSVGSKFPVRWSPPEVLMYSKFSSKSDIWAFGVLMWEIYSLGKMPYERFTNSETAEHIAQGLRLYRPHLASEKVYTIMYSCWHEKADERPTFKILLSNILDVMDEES

Row | SMILES | IC50 (BTK) [nM] | CYP3A4 Ind. fold (CYP3A4) [fold] | IC50 [1] [nM] | EC50 [2] [nM]
1 | C=CC(=O)N1C2CC1CN(C1CCNc3c1nn(-c1ccc(Oc4ccccc4)cc1)c3C(N)=O)C2 (stereo not shown) [Example 45, 2-(4-phenoxyphenyl)-7-[6-(prop-2-enoyl)-3,6-diazabicyclo[3.1.1]heptan-3-yl]-4,5,6,7-tetrahydro-2H-pyrazolo[4,3-b]pyridine-3-carboxamide] | 2.33 | 25.40 | – | –
2 | CCO/C=C/C(=O)N1CCN([C@@H]2CCNc3c2nn(-c2ccc(Oc4ccccc4)cc2)c3C(N)=O)CC1 [Example 50, (7R)-7-{4-[(2E)-3-ethoxyprop-2-enoyl]piperazin-1-yl}-2-(4-phenoxyphenyl)-4,5,6,7-tetrahydro-2H-pyrazolo[4,3-b]pyridine-3-carboxamide] | – | – | 38.6 | –
3 | COC(=O)/C=C/C(=O)N1CCN(C2CCNc3c2nn(-c2ccc(Oc4ccccc4)cc2)c3C(N)=O)CC1 (stereo not shown) [Example 51, methyl (2E)-4-{4-[3-carbamoyl-2-(4-phenoxyphenyl)-4,5,6,7-tetrahydro-2H-pyrazolo[4,3-b]pyridin-7-yl]piperazin-1-yl}-4-oxobut-2-enoate] | – | – | 507 | –
4 | C=CC(=O)N1CCN([C@@H]2CCNc3c2nn(-c2ccc(Oc4cc(F)cc(F)c4)cc2)c3C(N)=O)CC1 [Example 58, (7R)-2-[4-(3,5-difluorophenoxy)phenyl]-7-[4-(prop-2-enoyl)piperazin-1-yl]-4,5,6,7-tetrahydro-2H-pyrazolo[4,3-b]pyridine-3-carboxamide] | 77.5 | 1.58 | – | –
5 | C=CC(=O)N1CCN([C@H]2CCNc3c2nn(-c2ccc(Oc4cc(F)cc(F)c4)cc2)c3C(N)=O)CC1 [Example 59, (7S)-2-[4-(3,5-difluorophenoxy)phenyl]-7-[4-(prop-2-enoyl)piperazin-1-yl]-4,5,6,7-tetrahydro-2H-pyrazolo[4,3-b]pyridine-3-carboxamide] | 2.17 | 0.85 | – | 117
6 | C=CC(=O)N1CC(N2CCNc3c2nn(-c2ccc(Oc4cccc(F)c4)cc2)c3C(N)=O)C1 [Example 62, 2-[4-(3-fluorophenoxy)phenyl]-7-[1-(prop-2-enoyl)azetidin-3-yl]-4,5,6,7-tetrahydro-2H-pyrazolo[3,4-b]pyrazine-3-carboxamide] | – | – | 6.2 | 7.75
7 | C=CC(=O)N1CC(N2CCNc3c2nn(-c2ccc(Oc4ccc(F)c(F)c4)cc2)c3C(N)=O)C1 [Example 63, 2-[4-(3,4-difluorophenoxy)phenyl]-7-[1-(prop-2-enoyl)azetidin-3-yl]-4,5,6,7-tetrahydro-2H-pyrazolo[3,4-b]pyrazine-3-carboxamide] | – | – | 20.3 | 19.4
